This is an account of results in patent EP2402327B1, “Acetamide compounds as glucokinase activators, their process and medicinal applications” (Impetis Biosciences Ltd., priority 2010, dated 2012).

Series [1] deals with T1, purified human recombinant GK (Homo sapiens, UniProt P35557).
T1 sequence (P35557 1-465): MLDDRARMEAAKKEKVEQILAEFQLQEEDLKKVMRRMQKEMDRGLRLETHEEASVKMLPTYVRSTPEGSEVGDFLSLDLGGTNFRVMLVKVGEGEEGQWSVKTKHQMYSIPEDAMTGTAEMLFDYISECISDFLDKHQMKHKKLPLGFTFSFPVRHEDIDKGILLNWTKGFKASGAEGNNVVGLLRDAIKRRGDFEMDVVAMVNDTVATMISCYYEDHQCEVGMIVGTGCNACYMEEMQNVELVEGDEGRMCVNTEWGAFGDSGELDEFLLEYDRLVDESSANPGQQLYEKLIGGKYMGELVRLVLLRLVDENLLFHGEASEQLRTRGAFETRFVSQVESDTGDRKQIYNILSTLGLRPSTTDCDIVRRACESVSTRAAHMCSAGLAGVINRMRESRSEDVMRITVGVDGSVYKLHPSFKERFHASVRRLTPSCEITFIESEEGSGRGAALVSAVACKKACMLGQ
Put plainly: Glucokinase activity assay (coupled enzymatic assay with G6PD, NADH absorbance at 340 nm). Conditions: for EC50: EC50 of % change in S0.5 (% ΔS0.5) of glucokinase for glucose, sigmoidal fit; for Emax: Emax of % change in S0.5 (% ΔS0.5), vehicle control S0.5 = 0%, 0 mM glucose = 100%. The format is biochemical. The text has this: The glucokinase (GK) assay is a coupled enzymatic assay. GK catalyzes the first step of glycolysis, the conversion of glucose to glucose-6-phosphate (G6P) in the presence of ATP. G6P in turn is converted by glucose-6-phosphate dehydrogenase (G6PD) to 6-phosphogluconate, a process that requires NAD, resulting in NADH formation. Since the GK-catalyzed step is the rate-limiting step of this coupled enzymatic process, the rate of accumulation of 6-phosphogluconate and NADH is directly proportional to the rate of glucose phosphorylation by GK. The rate of the GK-catalyzed reaction can therefore be measured by monitoring the increase in NADH absorbance at 340 nm.
The assay is carried out according to the protocol outlined in Hariharan et al (1997), Diabetes 46: 11-16. Briefly, the test compounds are incubated in a reaction mix containing 25 mM HEPES (pH 7.2), 10 mM MgCl2, 100 mM KCl, 5 mM ATP, 2 mM DTT, 0.5 mM NAD, 1 U/ml Leuconostoc mesenteroides G6PD, 0.3 U/ml of purified human recombinant GK, and different concentrations of glucose. Enzymatic activity is calculated from the initial reaction velocity, measured from the change in NADH absorbance as a function of time.
Compounds described in formula (I), in concentration ranges from 1.0 nM to 500 µM, are tested in the purified human recombinant glucokinase assay described above.
A compound is considered to be a glucokinase activator if it, in its testable range of concentrations, yields a higher rate of glucose phosphorylation than in its absence at a particular glucose concentration, for example at 5 mM glucose.
Compounds of general formula (I) are tested in the in vitro GK enzymatic assay to monitor dose-dependent effect on glucokinase activation (in kinetic mode), as described above, at various glucose concentrations. The S0.5 of glucokinase for glucose at different concentration of each compound of interest is calculated from the following modified version of the Michaelis-Menten equation, V = Vmax [S]^n/(S0.5^n + [S]^n), where [S] is the glucose concentration and n is the Hill coefficient (taken as 1.7 to account for the sigmoidal kinetics of glucokinase with respect to glucose). The S0.5 is plotted against the log of the compound concentration. The change in the S0.5 of glucokinase (ΔS0.5) for glucose is calculated by subtracting the S0.5 at each concentration of the compound from the S0.5 in the vehicle control. The ΔS0.5 is then normalized to a percent scale, where the S0.5 in the vehicle control is set to 0% and 0 mM glucose is set to 100%. The % ΔS0.5 is then plotted against the log of the compound concentration. The EC50 and Emax of % change in S0.5 is obtained from the sigmoidal fit of the data. Detailed protocol has been described in our copending application no. 409/CHE/2007 which is incorporated herein by reference. Characterization data of some representative glucokinase activators of the present disclosure, which are illustrative but not limiting, are given in table I below.
The glucokinase activation data of some representative compounds of the present disclosure, which are illustrative but not to be construed as limiting the scope or spirit of the disclosure, are given in the table I below. Table I: EC50 and Emax (with respect to % ΔS0.5) of GK activators

The test system of the next series is primary rat hepatocytes. Put plainly: Measurement of glycogen synthesis in primary rat hepatocytes. Conditions: 10 µM compound, 10 mM glucose, 3 hours at 37°C, fold increase over DMSO control. Type of series: cell-based, male Wistar rats. As to the method: Primary hepatocytes are collected from male Wistar rats, and tested for viability by trypan blue exclusion. Primary hepatocytes cultures with viability greater than 95% are selected for the glycogen synthesis assay. The cells are seeded in a 48-well plate at a density of 200,000 cells/well in 250 µl Minimal Essential Medium (MEM) containing 10% foetal calf serum (FCS) and 1.7 µM insulin, and incubated for 4 hours at 37°C to allow attachment. The medium is replaced with fresh MEM containing 10% FCS, 1.7 µM insulin and 10 nM dexamethasone, and the cells are incubated for 16 hours at 37°C. The medium is then replaced with fresh MEM (serum-free) containing 2 µCi/ml of D-[U^14C]-Glucose along with 10 µM of the compound in a final DMSO concentration of 0.1%. The final glucose concentration is brought to 10 mM by the addition of D-Glucose (MEM already contains 5 mM glucose). The cells are incubated for 3 hours at 37°C. The cells are washed twice with 150 mM NaCl, lysed with 0.1 N NaOH, and the lysate precipitated with 8% w/v trichloroacetic acid (TCA) and 1 mg/well unlabeled glycogen as carrier. Cell debris is pelleted by centrifugation, the supernatant is removed, and the glycogen is precipitated with 63% ethanol. After another round of centrifugation, the supernatant is removed, and the pellet containing the precipitated glycogen is dried overnight. De novo synthesized glycogen is estimated in a scintillation counter (MicroBeta Trilux, Perkin Elmer), and expressed as fold increase over DMSO control.
The protocol for the glycogen assay is based on the method described in "Biochem J. 1990 Feb 15; 266(1): 91-102" with a few minor modifications. The protocol for isolation of primary rat hepatocytes is based on the method described in "Methods in Enzymology, Vol. III. pp 34-50. Ed. by S.P. Colowick and N.O. Kaplan. New York, Academic Press, 1957" with a few minor modifications.
Compounds described in formula (I), in concentration ranges from 1.0 nM to 500 µM, are tested in glycogen synthesis assay described above. […]

The conditions of series [2]: cited from earlier work.

For the compound `O=C(Nc1ncc(Oc2ccc(-c3nn[nH]n3)cc2)s1)C(OC1CCOCC1)c1ccc(S(=O)(=O)C2CC2)cc1` (stereo not shown) [Example E1, 2-(4-Cyclopropanesulfonyl-phenyl)-2-(tetrahydro-pyran-4-yloxy)-N-{5-[4-(2H-tetrazol-5-yl)-phenoxy]-thiazol-2-yl}-acetamide], in series [1], the EC50 worked out at 99 nM and the maximal effect (Emax) came to 88%.
As to `NC(=O)c1cccc(Oc2cnc(NC(=O)C(Oc3ccc(F)cc3F)c3ccc(S(=O)(=O)C4CC4)cc3)s2)c1` (stereo not shown) [Example C6, 3-{2-[2-(4-Cyclopropanesulfonyl-phenyl)-2-(2,4-difluorophenoxy)-acetylamino]-thiazol-5-yloxy}-benzamide], in the series with primary rat hepatocytes, the “Fold increase in glycogen synthesis at 10 µM” value (shortened to “Fold increase”) is on record as 13.5 fold.
On to Ro-28-1675, for which, in series [2] (animal efficacy models, Kamata, K. et al (2004) Structure 12: 429-438), the hypoglycemia entry is reported as “cause hypoglycemia”.
On to `O=C(O)c1ccc2nc(NC(=O)C(OC3CCOCC3)c3ccc(S(=O)(=O)C4CC4)cc3)sc2c1` (stereo not shown) [Example B41, 2-[2-(4-Cyclopropanesulfonyl-phenyl)-2-(tetrahydro-pyran-4-yloxy)-acetylamino]-benzothiazole-6-carboxylic acid], for which, in series [1], the concentration giving a half-maximal response (EC50) worked out at 100 nM and the maximum response (Emax) came out at 75%.
As to `O=C(Nc1ncc(F)s1)[C@H](CC1CCOCC1)c1ccc(S(=O)(=O)C2CC2)cc1` [PSN-GK1], in series [2] (at higher dose, Fyfe, M. C. T. (2007) Diabetologia, 50: 1277-1287), the hypoglycemic potential entry was “hypoglycemic potential is seen”.
In the case of `O=C(Nc1ncc(Oc2ccc(CO)cc2)s1)C(OC1CCOCC1)c1ccc(S(=O)(=O)C2CC2)cc1` (stereo not shown) [Example F1, 2-(4-Cyclopropanesulfonyl-phenyl)-N-[5-(4-hydroxymethyl-phenoxy)-thiazol-2-yl]-2-(tetrahydro-pyran-4-yloxy)-acetamide], in series [1], the EC50 was 100 nM and the Emax turned out to be 91%.
Consider `COc1ccc2nc(NC(=O)C(OC3CCOCC3)c3ccc(S(=O)(=O)C4CC4)cc3)sc2n1` (single isomer, unassigned; (+)) [Example D9A, (+)2-(4-Cyclopropanesulfonyl-phenyl)-N -(5-methoxy-thiazolo[5,4-b]pyridin-2-yl)-2-(tetrahydro-pyran-4-yloxy)-Acetamide], for which, in series [1], the EC50 was determined as 68 nM and the maximal response (Emax) turned out to be 95%.
With `O=C(Nc1nc2cccnc2s1)C(Oc1ccc(F)cc1F)c1ccc(S(=O)(=O)N2CCCCC2)cc1` (single isomer, unassigned; (-)) [Example D1A, (-)2-(2,4-Difluoro-phenoxy)-2-[4-(piperidine-1-sulfonyl)-phenyl]-N-thiazo lo[5,4-b]pyridin-2-yl-acetamide], in series [1], the 50% effective concentration (EC50) came out at 84 nM and the Emax stood at 85%.
For `O=C(O)c1ccc(Oc2cnc(NC(=O)C(O[C@@H]3CCOC3)c3ccc(S(=O)(=O)C4CC4)cc3)s2)cc1` (single isomer, unassigned) [Example D6A], the “Fold increase” value in the series with primary rat hepatocytes worked out at 11 fold. In series [1], the EC50 came out at 22 nM and the maximum response (Emax) was found to be 88%.
As for `O=C(O)c1ccc(Oc2cnc(NC(=O)C(OC3CCOCC3)c3ccc(S(=O)(=O)C4CC4)cc3)s2)c(F)c1` (stereo not shown) [Example B34, 4-{2-[2-(4-Cyclopropanesulfonyl-phenyl)-2-(tetrahydropyran-4-yloxy)-acetylamino]-thiazol-5-yloxy}-3-fluorobenzoic acid], in series [1], the EC50 worked out at 45 nM and the Emax stood at 91%.
As for `CCOc1ccc2nc(NC(=O)C(OC3CCOCC3)c3ccc(S(=O)(=O)C4CC4)cc3)sc2n1` (single isomer, unassigned; (+)) [Example D10A, (+)2-(4-Cyclopropanesulfonyl-phenyl)-N -(5-ethoxy-thiazolo[5,4-b]pyridin-2-yl)-2-(tetrahydro-pyran-4-yloxy)-a Cetamide], in series [1], the EC50 was determined as 54 nM and the Emax is 92%.
For `O=C(O)c1ccc(Oc2cnc(NC(=O)C(OC3CCOCC3)c3ccc(S(=O)(=O)C4CC4)cc3)s2)cc1` (single isomer, unassigned; (+)) [Example D4A, (+) 4-{2-[2-(4-Cyclopropanesulfonylphenyl)-2-(tetrahydro-pyran-4-yloxy)-acetylamino]-thiazol-5-yloxy}-benzoic acid], in series [1], the EC50 was found to be 69 nM and the maximal effect (Emax) was determined as 92%.
With `O=C(O)c1ccc(Oc2cnc(NC(=O)C(Oc3ccc(F)cc3F)c3ccc(S(=O)(=O)C4CC4)cc3)s2)cc1` (single isomer, unassigned; (+)) [Example D11A, (+)4-{2-[2-(4-Cyclopropanesulfonylphenyl)-2-(2,4-difluoro-phenoxy)-acetylamino]-thiazol-5-yloxy}-benzoic acid], the “Fold increase” value in the series on primary rat hepatocytes came to 15.5 fold. In series [1], the half-maximal effective concentration (EC50) worked out at 34 nM and the Emax came out at 95%.

As usually defined, the EC50 is the concentration at which the effect is half-maximal. A word on the Emax: it is the maximal effect, on the per cent scale that the assay sets.
